These results are taken from US20080096924A1, “Amorphous Composition” (ONO PHARMACEUTICAL CO., LTD., priority 2004, published 2008).

For series [1], the target named is N-type calcium channel (Homo sapiens, UniProt Q00975). The note with it: refer to Patent Document 1; cited from earlier work.
Series [2] concerns the target CYP3A4 (Homo sapiens, UniProt P08684). Put plainly: Metabolism by metabolic enzyme.
The nature of series [3]: Solubility in water. The series is classed as physicochemical. The note with it: crystals of compound (I) vs spray-dried amorphous powder with HPMCAS.
Series [4] is described as follows: Bioavailability on oral administration. The note with it: in vivo, orally administered, read-out: bioavailability (BA).

Structures are written as SMILES. ≈ marks a conversion by molar mass, not a printed value.

N-type calcium channel, sequence (Q00975 whole entry): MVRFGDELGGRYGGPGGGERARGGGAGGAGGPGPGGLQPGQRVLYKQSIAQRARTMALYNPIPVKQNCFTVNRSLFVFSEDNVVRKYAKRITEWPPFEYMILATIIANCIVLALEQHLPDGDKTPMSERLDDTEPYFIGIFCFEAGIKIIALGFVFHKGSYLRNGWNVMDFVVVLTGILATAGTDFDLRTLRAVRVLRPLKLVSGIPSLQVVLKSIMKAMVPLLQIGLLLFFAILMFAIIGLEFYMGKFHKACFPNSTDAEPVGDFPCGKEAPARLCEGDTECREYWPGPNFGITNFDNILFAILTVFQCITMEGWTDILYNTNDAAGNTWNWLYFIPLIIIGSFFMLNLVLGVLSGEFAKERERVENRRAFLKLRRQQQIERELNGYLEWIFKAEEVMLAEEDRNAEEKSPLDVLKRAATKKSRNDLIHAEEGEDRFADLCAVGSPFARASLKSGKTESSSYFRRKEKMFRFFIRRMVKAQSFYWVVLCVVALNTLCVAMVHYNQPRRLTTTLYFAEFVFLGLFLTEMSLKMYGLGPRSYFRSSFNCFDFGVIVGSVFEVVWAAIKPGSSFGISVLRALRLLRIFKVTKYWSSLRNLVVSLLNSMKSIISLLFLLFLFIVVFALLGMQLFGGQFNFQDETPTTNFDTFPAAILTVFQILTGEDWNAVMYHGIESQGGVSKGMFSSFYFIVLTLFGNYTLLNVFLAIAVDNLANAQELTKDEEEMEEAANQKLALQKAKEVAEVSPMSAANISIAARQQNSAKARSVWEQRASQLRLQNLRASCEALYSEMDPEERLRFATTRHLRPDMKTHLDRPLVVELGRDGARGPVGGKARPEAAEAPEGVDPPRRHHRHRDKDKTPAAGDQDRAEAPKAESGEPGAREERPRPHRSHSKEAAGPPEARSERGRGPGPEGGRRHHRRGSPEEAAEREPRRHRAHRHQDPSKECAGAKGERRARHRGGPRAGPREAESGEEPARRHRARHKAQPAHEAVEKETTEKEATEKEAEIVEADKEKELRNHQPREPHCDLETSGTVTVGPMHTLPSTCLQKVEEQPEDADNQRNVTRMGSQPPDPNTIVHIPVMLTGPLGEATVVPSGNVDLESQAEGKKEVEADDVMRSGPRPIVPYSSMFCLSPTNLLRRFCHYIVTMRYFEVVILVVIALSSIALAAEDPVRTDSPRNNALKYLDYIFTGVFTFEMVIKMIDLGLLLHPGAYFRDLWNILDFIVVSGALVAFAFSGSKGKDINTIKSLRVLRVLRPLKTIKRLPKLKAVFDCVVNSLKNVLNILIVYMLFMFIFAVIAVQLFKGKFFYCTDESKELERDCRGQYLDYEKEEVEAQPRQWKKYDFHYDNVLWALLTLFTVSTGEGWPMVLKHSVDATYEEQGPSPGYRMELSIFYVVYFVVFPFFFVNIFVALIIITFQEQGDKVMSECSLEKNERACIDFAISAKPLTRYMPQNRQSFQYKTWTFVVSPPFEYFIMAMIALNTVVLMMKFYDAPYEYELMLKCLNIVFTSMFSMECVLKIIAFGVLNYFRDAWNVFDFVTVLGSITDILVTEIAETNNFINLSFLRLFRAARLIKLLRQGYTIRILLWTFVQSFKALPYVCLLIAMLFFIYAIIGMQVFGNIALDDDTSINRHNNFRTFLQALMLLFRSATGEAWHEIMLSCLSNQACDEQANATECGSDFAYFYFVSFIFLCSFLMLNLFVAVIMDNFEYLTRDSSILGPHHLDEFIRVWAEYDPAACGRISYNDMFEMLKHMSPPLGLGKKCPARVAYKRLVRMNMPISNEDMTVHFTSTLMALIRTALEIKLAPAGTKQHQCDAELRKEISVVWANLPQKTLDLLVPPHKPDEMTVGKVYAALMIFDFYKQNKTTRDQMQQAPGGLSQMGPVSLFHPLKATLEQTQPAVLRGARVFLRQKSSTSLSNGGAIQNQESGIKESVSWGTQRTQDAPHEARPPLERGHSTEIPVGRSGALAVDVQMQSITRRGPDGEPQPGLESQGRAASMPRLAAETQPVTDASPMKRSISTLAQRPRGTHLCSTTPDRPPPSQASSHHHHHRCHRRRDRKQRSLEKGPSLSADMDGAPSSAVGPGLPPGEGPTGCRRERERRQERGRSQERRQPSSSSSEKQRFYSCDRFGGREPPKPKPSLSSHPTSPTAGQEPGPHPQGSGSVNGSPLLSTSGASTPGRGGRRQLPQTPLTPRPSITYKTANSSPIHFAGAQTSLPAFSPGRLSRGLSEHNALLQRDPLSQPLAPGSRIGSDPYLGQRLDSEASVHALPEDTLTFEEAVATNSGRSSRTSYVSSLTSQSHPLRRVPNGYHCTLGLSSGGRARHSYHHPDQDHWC
CYP3A4, sequence (P08684 whole entry): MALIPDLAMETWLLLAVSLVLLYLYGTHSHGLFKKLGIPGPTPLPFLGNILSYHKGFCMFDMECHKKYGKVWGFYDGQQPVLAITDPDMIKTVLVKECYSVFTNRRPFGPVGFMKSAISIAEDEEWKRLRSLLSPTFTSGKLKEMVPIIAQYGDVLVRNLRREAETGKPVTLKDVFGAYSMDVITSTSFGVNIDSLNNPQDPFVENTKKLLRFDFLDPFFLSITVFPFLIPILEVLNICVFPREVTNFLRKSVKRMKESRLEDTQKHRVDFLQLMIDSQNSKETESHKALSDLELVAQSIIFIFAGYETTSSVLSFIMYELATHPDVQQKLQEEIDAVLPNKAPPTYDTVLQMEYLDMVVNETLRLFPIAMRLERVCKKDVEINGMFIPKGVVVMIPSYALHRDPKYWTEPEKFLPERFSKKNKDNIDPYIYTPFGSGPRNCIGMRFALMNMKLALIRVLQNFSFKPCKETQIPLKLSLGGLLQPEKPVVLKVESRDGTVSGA

Consider `CC(C)(C)OC(=O)N1CSC[C@H]1C(=O)N[C@@H](CSCC1CCCCC1)C(=O)NC1CCN(Cc2ccccc2)CC1` [compound (I), (2R)—N-(1-benzylpiperidin-4-yl)-3-cyclohexylmethylthio-2-[(4R)-3-tert-butoxycarbonylthiazolidin-4-ylcarbonylamino]propaneamide], for which, in series [1], the “N-type calcium channel inhibiting activity” value is listed as “N-type calcium channel inhibiting activity”. The metabolic enzyme result in series [2] is on record as “metabolized by CYP3A4”. For the same molecule, in series [3], the solubility (commonly how much of the substance goes into solution per volume) is about 1.25 µg/mL (≈ 2.07 µM). Moreover, in series [4], the bioavailability (usually the share of a dose that reaches the circulation, judged against a reference dose that is usually intravenous) is about 0.2%.
